# Source: patent US12466855B2, “Labeled oxytocin and method of manufacture and use” (TONIX PHARMA LIMITED, priority 2018, dated 2025)
# How the values were obtained:
# [1] = PET/MR distribution of ^13N-oxytocin following nasal administration in rats; assay type: in vivo, rat; conditions: intranasal, approx. 100 μl (1-2 MBq) per nostril in 10% ethanol/90% saline, 60 min PET scan, FIG. 3
# Experimental: (§1) Anesthetised rats are scanned using a microPET scanner (nanoscan microPET/IT MRI, Mediso Ltd, Budapest, Hungary). Body temperature is maintained and circulation and respiration are monitored. First, a structural T2-weighted MRI scan is obtained for attenuation correction. Subsequently, the rat is injected through the tail vein with the ^13N-oxytocin radiotracer. A list-mode protocol is used with a 60-min acquisition time. The list-mode data of the emission scans are split into a dynamic sequence of frames. The data are reconstructed per time frame employing an iterative reconstruction. Appropriate correction factors are applied producing quantitative dynamic images (matrix size (x, y, z) 93, 93, 120. Voxel size 0.4 mm. 3D Tera-Tomo reconstruction with Monte Carlo based estimation, attenuation and scatter correction). A summed PET image of each 60 min scan is co-registered to an average Sprague-Dawley rat MRI brain atlas using PMOD software (version 3.7, PMOD Technologies Ltd, Zurich, Switzerland), a commercially available software package for biomedical image quantification, to acquire data in regions of interest. The results are expressed as dimensionless standardized uptake values (SUVs): [tissue activity concentration (MBq/g)×body weight (g)/injected dose (MBq)].
# The distribution of ^13N-oxytocin following nasal administration in rats is tested. […]
# [2] = PET/MRI distribution of ^13N-oxytocin following IV administration in rats; assay type: in vivo; conditions: female Sprague Dawley rat, 13.3 MBq in the tail vein (IV), 30 min dynamic PET, FIG. 2
# Experimental: as §1, with “A list-mode protocol is used with a 60-min acquisition time.” left out, “A summed PET image of each 60 min scan is co-registered to an average” left out
# In one study, female Sprague Dawley rats were housed two per cage under a 12 h light/12 h dark cycle at an average temperature of 21° C. and humidity of 55%, with ad libitum access to food and water. […]
# [3] = human patients, migraine headache pain, after administration; cited from earlier work
smiles,measurement,setting,value
"CC[C@H](C)[C@@H]1NC(=O)[C@H](Cc2ccc(O)cc2)NC(=O)[C@@H](N)CSSC[C@@H](C(=O)N2CCC[C@H]2C(=O)N[C@@H](CC(C)C)C(=O)NCC(N)=O)NC(=O)[C@H](CC(N)=O)NC(=O)[C@H](CCC(N)=O)NC1=O [oxytocin, Cys-Tyr-Ile-Gln-Asn-Cys-Pro-Leu-Gly]",brain uptake / CNS penetration (PET/MR overlay),[1],lack of CNS penetration
same,brain uptake / CNS penetration (PET and MR scans),[2],lack of CNS penetration
same,initial period before onset of significant analgesia,[3],up to 2 hours
same,time to maximal analgesic effect,[3],4 h
